Reference: publication PMC5827777, “Synthesis and biological evaluation of RGD and isoDGR peptidomimetic-α-amanitin conjugates for tumor-targeting” (Beilstein Journal of Organic Chemistry, 2018)
Where two headings read alike, the source gives them in different places.

Legend:
[1] = system: A549 cells (human lung carcinoma, αVβ3−); assay: cells; format: cell-based; settings: 96 hours treatment; triplicate; read-out: IC50 A549 (αVβ3−), inhibition of cell viability
Experimental: (§1) The cell lines were treated with different concentrations of the free drug α-amanitin and conjugates 7–11 for 96 hours. […]
(§2) described recently.[S1] The SNP profiles matched known profiles or were unique. The purity of the cell lines was validated using the Multiplex cell Contamination Test by Multiplexion (Heidelberg, Germany) as described recently.[S2] No mycoplasma, SMRV or interspecies contamination was detected. U87-MG, MDA-MB 468 and A549 cells were cultivated continuously for not more than 3 months in MEM Eagle´s, DMEM or Ham´s F12 medium, respectively, supplemented with 10% heat inactivated fetus calf serum, L-glutamine and antibiotics. Cell lines were maintained at 37 °C and 5% CO2 in a high humidity atmosphere.
(§3) Cell therapy and viability assay
(§4) Cell viability assays were performed in U87-MG, A549 and MDA-MB 468 cell lines according to the following procedure: 2 × 10^3 cells/well were plated in 96-well black clear bottom plates (Perkin Elmer) and incubated overnight. 1:5 serial dilutions of compounds 7–11 were prepared in cell culture media. The compounds were added to the cell culture and incubated for additional 96 h. Starting concentration of compounds 7–11 in the wells was 1 × 10−5 M and cell viability was determined with the CellTiterGlo 2.0 assay (Promega) in accordance to manufacturer’s instructions. The cell viability was calculated in relation to the non-treated controls for each cell line. All samples were measured in triplicate. Data analysis was carried out using software GraphPad Prism (GraphPad Software Inc., La Jolla, CA, USA). […]

[2] = system: MDA-MB-468 cells (breast adenocarcinoma, αVβ3−); assay: cells; format: cell-based; settings: 96 hours treatment; triplicate; read-out: IC50 MDA-MB-468 (αVβ3−), inhibition of cell viability
Experimental: as §1, §2, §3, §4
(§5) [S1] F. Castro, W. G. Dirks, S. Fähnrich, A. Hotz-Wagenblatt, M. Pawlita, M. Schmitt, Int. J. Cancer […]
(§6) [S2] M. Schmitt, M. Pawlita, Nucleic Acids Res. 2009, 37, e119.

[3] = system: U87 cells (human glioblastoma, αVβ3+); assay: cells; format: cell-based
Experimental: as §1, §2, §3
Cell viability assays were performed in U87-MG, A549 and MDA-MB 468 cell lines according to the following procedure: 2 × 10^3 cells/well were plated in 96-well black clear bottom plates (Perkin Elmer) and incubated overnight. 1:5 serial dilutions of compounds 7–11 were prepared in cell culture media. The compounds were added to the cell culture and incubated for additional 96 h. Starting concentration of compounds 7–11 in the wells was 1 × 10−5 M and cell viability was determined with the CellTiterGlo 2.0 assay (Promega) in accordance to manufacturer’s instructions. The cell viability was calculated in relation to the non-treated controls for each cell line. All samples were measured in triplicate. Data analysis was carried out using software GraphPad Prism (GraphPad Software Inc., La Jolla, CA, USA).
Competition experiment of compounds 10 and 11
The competition experiment s were performed in U87-MG and MDA-MB 468 cell lines according to the following procedure: 2 × 10^3 cells/well were plated in 96-well black clear bottom plates (Perkin Elmer) and incubated overnight. A solution containing 1 × 10−4 M of the conjugates 10 or 11 and 5 × 10−3 M of cilengitide (50-fold excess of ligand in comparison to the conjugate) was prepared in the growth medium and 1:5 serial dilutions were prepared in cell culture media. The compounds were added to cell culture and incubated for 96 h. The starting concentration of the compounds in the wells was 0.01 mM whereas that of cilengitide was 0.5 mM. The cell viability was determined with the CellTiterGlo 2.0 assay (Promega) in accordance to manufacturer’s instructions and the viability was calculated in relation to the non-treated controls for each cell line. All samples were measured in triplicate. Data analysis was carried out using software GraphPad Prism (GraphPad Software Inc., La Jolla, CA, USA).
as §5, §6

[4] = system: MDA-MB-468 (αVβ3−, αVβ5+, αVβ6+, α5β1−); settings: read-out: IC50 MDA-MB-468, inhibition of cell viability, 96 hours
Description: (§7) However, it should be noted that these cell lines overexpress other integrins (α5β1 in U87, αVβ6 in MDA-MB-468, and αVβ5 in both). […]
(§8) described recently.[S1] […] The purity of […]
(§9) the cell lines was validated using the Multiplex cell Contamination Test by Multiplexion (Heidelberg, Germany) as described recently.[S2]
(§10) U87-MG, MDA-MB 468 and A549 cells were cultivated continuously for not more than 3 months in MEM Eagle´s, DMEM or Ham´s F12 medium, respectively, supplemented with 10% heat inactivated fetus calf serum, L-glutamine and antibiotics. Cell lines were maintained at 37 °C and 5% CO2 in a high humidity atmosphere.
as §3
(§11) Cell viability assays were performed in U87-MG, A549 and MDA-MB 468 cell lines according to the following procedure: 2 × 10^3 cells/well were plated in 96-well black clear bottom plates (Perkin Elmer) and incubated overnight. […]
(§12) in cell culture media. The compounds were added to the cell culture and incubated for additional […]
(§13) was determined with the CellTiterGlo 2.0 assay (Promega) in accordance to manufacturer’s instructions. The cell viability was calculated in relation to the non-treated controls for each cell line. All samples were measured in triplicate.
(§14) All samples were measured in triplicate.

[5] = system: U87 (αVβ3+, αVβ5+, αVβ6−, α5β1+); settings: read-out: IC50 U87, inhibition of cell viability, 96 hours
Description: as §7, §8, §9, §10, §3, §11, §12, §13, §14

[6] = + 50-fold excess of cilengitide

Molecule `CC[C@H](C)[C@@H]1NC(=O)CNC(=O)[C@@H]2Cc3c([nH]c4cc(OCc5ccc(NC(=O)[C@H](C)NC(=O)[C@@H](NC(=O)CCCC(=O)NCc6ccc(CN7C(=O)[C@H]8CC(=O)N[C@H](C(=O)O)CC(=O)NCC(=O)N[C@@H](CCCNC(=N)N)C(=O)NC[C@H]7C(=O)N8)cc6)C(C)C)cc5)ccc34)[S@+]([O-])C[C@H](NC(=O)CNC1=O)C(=O)N[C@@H](CC(N)=O)C(=O)N1C[C@H](O)C[C@H]1C(=O)N[C@@H]([C@@H](C)[C@@H](O)CO)C(=O)N2` [Compound 10, cyclo[DKP-isoDGR]-Val-Ala-α-amanitin] has an IC50 [1] of 217 ± 98.3 nM, an IC50 [2] of 59 ± 23.4 nM and an IC50 ([3]; 96 hours treatment, triplicate, read-out: IC50 U87 (αVβ3+), inhibition of cell viability) of 143 ± 33.8 nM. For the same molecule, the “more potent than α-amanitin” value ([3]; in U87, A549 and MDA-MB-468 cell lines, Table 3 entry 1 vs entry 5) was 2.4–3.1 times, the IC50 [4, 6] was 259 ± 55.2 nM and the IC50 ([4]; without cilengitide) was 47 ± 21.1 nM. It also gave an IC50 [5, 6] of 106 ± 11.6 nM and an IC50 ([5]; without cilengitide) of 107 ± 26.8 nM.
